From patent US8623885B2, “Fused tricyclic dual inhibitors of CDK 4/6 and FLT3” (Amgen Inc., priority 2011, dated 2014)
“Also recorded” adds a separate entry of the source.

How the values were obtained:
neointima formation = details: animal models; cited from earlier work
[1] = target: FLT3 enzyme (GST-FLT3 fusion) (Homo sapiens (Human), UniProt P36888); experiment: FLT3 HTRF kinase assay; assay type: biochemical; details: 116 μM ATP
Method: The FLT3 inhibitory activity of the CDK4/6-FLT3 inhibitors was determined with a HTRF kinase assay. The FLT3 enzyme (GST-FLT3 fusion) was purchased from Carna Biosciences. An ULight-labeled synthetic peptide derived from human Janus kinase 1 (aa1015-1027, ULight-JAK1, PerkinElmer) was utilized as the phosphoacceptor substrate. The assay was conducted in a 384-well white OptiPlate (PerkinElmer). The 20 μL reaction mixture contained 50 nM ULight-JAK1, 116 μM ATP, 0.0385 ng/μL FLT3 and dilutions of test compounds in the kinase buffer (50 mM Hepes, pH 7.6, 1 mM EGTA, 10 mM MgCl2, 2 mM DTT, and 0.005% Tween 20). The reaction was allowed to proceed for 1 hour at room temperature and was stopped by adding 20 μL of 10 mM EDTA, 2 nM LANCE® Eu-W1024 anti-phospho-tyrosine antibody in LANCE® detection buffer (PerkinElmer). The plates were incubated at room temperature for 2 hours after addition of detection reagents and then read on an Envision multimode reader (PerkinElmer).
(§1) IC50 values of the compounds in the above assays were determined by non-linear regression analysis using Prism (GraphPad Software).

[2] = system: Colo205 human colon carcinoma xenograft tumors; experiment: Tumor growth inhibition in Colo205 xenograft tumors; assay type: in vivo, CrTac:NCR-Foxn1nu nude mice
Method: The activity of Example 5 was evaluated in the human colon carcinoma, Colo205, xenograft tumor model. This cell line expresses CDK4/6 but not FLT3. Therefore, this system will measure the activity of Example 5 against CDK4/6. Colo205 cells (obtained from American Type Culture Collection, Manassas, Va., USA) were cultured in DMEM cell growth medium containing 10% fetal bovine serum (commercially obtained from Invitrogen, Carlsbad, Calif. USA). Two million cells were innoculated on the right flank of CrTac:NCR-Foxn1^nu nude mice (commercially available from Taconic Farms, Inc, Hudson, N.Y. USA) and allowed to grow for 13 days. Mice were then distributed into groups of 10 mice based on ranking of initial tumor volume to achieve groups in which the average tumor size was 170 mm^3 Example 5 was formulated in 2% HPMC (Hypermellose; HY122-13; commercially available from Spectrum Chemical Manufacturing Gardena, Calif. USA)/1% Tween-80 (Crillet 4 HP; commercially available from Croda, Inc Edison, N.J. USA) and dosed daily or twice daily 6 hours apart for a total of 10 days with 12.5 mg/kg, 25 mg/kg, 37.5 mg/kg, or 50 mg/kg. Tumors were measured every other day using two-dimensional calipers and tumor volumes were estimated using the equation Width^2×Length×0.5. […] Statistical significance was evaluated using RMANOVA on log transformed tumor volume with baseline as covariate.

CDK4/Cyclin D1 = CDK4/Cyclin D1 (Homo sapiens (Human), UniProt P11802); experiment: CDK4 filtration kinase assay; assay type: biochemical; details: CDK4/Cyclin D1, Rb fragment substrate, [33P]-ATP filtration assay
Method: The CDK4 and CDK1 inhibitory activity of the CDK4/6-FLT3 inhibitors was determined with a filtration kinase assay. The compounds, kinase and substrate diluted in the kinase buffer (20 mM Tris, pH7.4, 50 mM NaCl, 1 mM DTT, 0.1% BSA) were sequentially added to a 96-well Multiscreen HTS filtration plate (Millipore). The final 100 μL reaction mixture in each well contained 0.3 μg of CDK4/Cyclin D1 or CDK1/Cyclin B (Cell Signaling Technology), 1 μg of Rb fragment (aa773-928, Millipore) for the CDK4 assay or 5 μg of histone H1 for the CDK1 assay and 1 μCi of [^33P]-ATP. The mixture was incubated at room temperature for 1 hour. The proteins in the reaction were then precipitated and washed with cold TCA solution using an aspiration/filtration vacuum system. The plates were dried at room temperature, and the retained radioactivity was measured by scintillation counting.
as §1

[3] = system: MOLM13 subcutaneous xenograft tumors; experiment: Tumor growth inhibition in AML MOLM13 xenograft tumors; assay type: in vivo, CrTac:NCR-Foxn1nu nude mice
Method: The AML cell line, MOLM13, (obtained from American Type Culture Collection, Manassas, Va., USA) was cultured in RPMI-1640 cell growth medium containing 10% fetal bovine serum (commercially obtained from Invitrogen, Carlsbad, Calif. USA). This cell line expresses CDK4/6, one copy of wild type FLT3 kinase and one copy of FLT3-ITD, which results in constitutive activation of FLT3 activity. Therefore, the activity of Example 5 against both FLT3 and CDK4/6 can be tested in this tumor cell. Tumor cells (7.5 million) were injected subcutaneously onto the right flank of CrTac:NCR-Foxn1^nu nude mice (commercially available from Taconic Farms, Inc, Hudson, N.Y. USA). Tumors were allowed to grow for 6 days. […] Tumors were measured every other day using two-dimensional calipers and tumor volumes were estimated using the equation Width^2×Length×0.5. […] Statistical significance was evaluated using RMANOVA on log transformed tumor volume with baseline as covariate.

MOLM13 cells = experiment: [14C]-thymidine incorporation cell proliferation assay, MOLM13; assay type: cell-based, human; details: Homo sapiens, MOLM-13, 72 hour incubation
Method: The cell proliferation inhibition potency of the CDK4/6-FLT3 inhibitors was determined by using a [^14C]-thymidine incorporation assay. Exponentially growing cells (MOLM-13, Colo-205, etc.) were seeded in a 96-well Cytostar T plate (GE Healthcare Biosciences) at a density of 5×10^3 cells/well and incubated overnight. Serially diluted compounds and 0.1 μCi of [^14C]-thymidine (GE Healthcare Biosciences) were added to each well on the following day. After 72 hour incubation, isotope incorporation was determined with a β plate counter (Wallac). MOLM13 is a human AML tumor cell line expressing FLT3, FLT3^ITD and wild type Rb.
as §1

CDK4/Cyclin D1, sequence (P11802 whole entry, the tested form may be a part): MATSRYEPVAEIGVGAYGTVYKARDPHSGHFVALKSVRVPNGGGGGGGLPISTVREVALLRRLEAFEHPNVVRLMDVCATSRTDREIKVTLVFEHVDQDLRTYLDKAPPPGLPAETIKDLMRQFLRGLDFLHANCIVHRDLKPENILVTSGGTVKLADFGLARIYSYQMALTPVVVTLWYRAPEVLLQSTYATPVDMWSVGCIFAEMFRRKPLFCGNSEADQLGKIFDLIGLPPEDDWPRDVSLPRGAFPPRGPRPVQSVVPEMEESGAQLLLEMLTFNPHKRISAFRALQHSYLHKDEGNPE
CDK4/Cyclin D1, sequence (P24385 whole entry partner, the tested form may be a part): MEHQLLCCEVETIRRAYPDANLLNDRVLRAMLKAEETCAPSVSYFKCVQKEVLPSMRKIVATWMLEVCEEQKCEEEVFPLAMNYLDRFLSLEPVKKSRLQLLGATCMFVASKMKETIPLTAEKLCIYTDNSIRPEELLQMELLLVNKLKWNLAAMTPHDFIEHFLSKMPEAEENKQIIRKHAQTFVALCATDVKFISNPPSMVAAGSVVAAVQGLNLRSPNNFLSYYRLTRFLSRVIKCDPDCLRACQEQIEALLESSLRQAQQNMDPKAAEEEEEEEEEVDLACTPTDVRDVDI
FLT3 enzyme (GST-FLT3 fusion), sequence (P36888 27-993): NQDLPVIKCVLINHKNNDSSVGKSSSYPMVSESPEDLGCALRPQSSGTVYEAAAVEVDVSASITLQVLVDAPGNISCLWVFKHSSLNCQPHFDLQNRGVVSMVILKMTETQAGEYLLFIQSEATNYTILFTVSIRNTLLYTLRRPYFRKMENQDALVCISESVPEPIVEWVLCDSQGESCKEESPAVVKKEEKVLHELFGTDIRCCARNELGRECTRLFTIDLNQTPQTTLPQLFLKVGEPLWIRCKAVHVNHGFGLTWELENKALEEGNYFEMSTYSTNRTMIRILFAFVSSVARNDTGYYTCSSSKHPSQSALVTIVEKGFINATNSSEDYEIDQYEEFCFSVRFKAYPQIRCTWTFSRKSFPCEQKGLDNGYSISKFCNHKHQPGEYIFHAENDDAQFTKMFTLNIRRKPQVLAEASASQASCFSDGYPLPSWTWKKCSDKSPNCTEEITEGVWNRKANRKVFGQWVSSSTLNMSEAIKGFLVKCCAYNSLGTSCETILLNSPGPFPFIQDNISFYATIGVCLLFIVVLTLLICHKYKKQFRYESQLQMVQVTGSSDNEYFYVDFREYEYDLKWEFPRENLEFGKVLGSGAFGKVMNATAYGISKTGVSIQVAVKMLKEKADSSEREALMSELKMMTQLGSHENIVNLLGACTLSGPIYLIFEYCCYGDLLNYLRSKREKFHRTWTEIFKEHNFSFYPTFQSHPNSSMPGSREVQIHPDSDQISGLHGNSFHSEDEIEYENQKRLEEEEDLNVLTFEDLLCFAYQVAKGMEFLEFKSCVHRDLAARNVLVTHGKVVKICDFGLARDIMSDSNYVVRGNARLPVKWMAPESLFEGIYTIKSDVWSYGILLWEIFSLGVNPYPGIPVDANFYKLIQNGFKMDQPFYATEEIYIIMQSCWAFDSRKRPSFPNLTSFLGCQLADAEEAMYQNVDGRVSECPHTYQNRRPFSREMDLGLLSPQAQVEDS

COc1ccc(CNc2nc(N(CCO)CCO)nc3c2ncn3C(C)C)cc1 [CVT-313]
inhibition of neointima formation (neointima formation): significant inhibition of neointima formation

C[C@H]1CC[C@H](n2c3cnccc3c3cnc(Nc4ccc5c(n4)CCN(C(=O)CO)C5)nc32)CC1 [Example 5, 2-hydroxy-1-(2-((9-((1r,4r)-4-methylcyclohexyl)-9H-pyrido[4′,3′:4,5]pyrrolo[2,3-d]pyrimidin-2-yl)amino)-7,8-dihydro-1,6-naphthyridin-6(5H)-yl)ethanone]
IC50 [1]: 1.5 nM
inhibition of tumor growth (tumor volume) ([2]; 12.5-50 mg/kg, twice daily (BID), 10 days): dose dependent anti-tumor activity; also recorded: Dose-dependent inhibition of tumor growth
tumor volume versus vehicle treated group (RMANOVA) ([2]; all doses): statistically different from the vehicle treated group
IC50 (CDK4/Cyclin D1): 2.4 nM
inhibition of tumor growth (tumor volume) ([3]; 6.25-150 mg/kg, twice daily (BID), 10 days): dose dependent anti-tumor activity; also recorded: Dose-dependent inhibition of tumor growth
tumor volume versus vehicle treated group (RMANOVA) ([3]; all doses): statistically different from the vehicle treated group
IC50 (MOLM13 cells): 19 nM

CS(=O)(=O)CCN1CCc2nc(Nc3ncc4c5ccncc5n([C@H]5CC[C@H](C)CC5)c4n3)ccc2C1 [Example 8, 9-((1r,4r)-4-Methylcyclohexyl)-N-(6-(2-(methylsulfonyl)ethyl)-5,6,7,8-tetrahydro-1,6-naphthyridin-2-yl)-9H-pyrido[4′,3′:4,5]pyrrolo[2,3-d]pyrimidin-2-amine]
IC50 [1]: 36.1 nM
IC50 (CDK4/Cyclin D1): 2.4 nM
IC50 (MOLM13 cells): 9.1 nM

C[C@H]1CC[C@H](n2c3cnccc3c3cnc(Nc4ccc5c(n4)CCN(CCF)C5)nc32)CC1 [Example 9, N-(6-(2-Fluoroethyl)-5,6,7,8-tetrahydro-1,6-naphthyridin-2-yl)-9-((1r,4r)-4-methylcyclohexyl)-9H-pyrido[4′,3′:4,5]pyrrolo[2,3-d]pyrimidin-2-amine]
IC50 [1]: 3.4 nM
IC50 (CDK4/Cyclin D1): 72.8 nM
IC50 (MOLM13 cells): 64.9 nM

COCCN1CCc2nc(Nc3ncc4c5ccncc5n([C@H]5CC[C@H](C)CC5)c4n3)ccc2C1 [Example 10, N-(6-(2-Methoxyethyl)-5,6,7,8-tetrahydro-1,6-naphthyridin-2-yl)-9-((1r,4r)-4-methylcyclohexyl)-9H-pyrido[4′,3′:4,5]pyrrolo[2,3-d]pyrimidin-2-amine]
IC50 [1]: 1.7 nM
IC50 (CDK4/Cyclin D1): 10.5 nM
IC50 (MOLM13 cells): 33.2 nM

C[C@H]1CC[C@H](n2c3cnccc3c3cnc(Nc4cc5c(cn4)CCNC5)nc32)CC1 [Example 11, 9-((1r,4r)-4-Methylcyclohexyl)-N-(5,6,7,8-tetrahydro-2,6-naphthyridin-3-yl)-9H-pyrido[4′,3′:4,5]pyrrolo[2,3-d]pyrimidin-2-amine]
IC50 [1]: 73.7 nM
IC50 (CDK4/Cyclin D1): 257 nM
IC50 (MOLM13 cells): > 3000 nM

C[C@H]1CC[C@H](n2c3cnccc3c3cnc(Nc4cc5c(cn4)CCN(CCO)C5)nc32)CC1 [Example 12, 2-(7-((9-((1r,4r)-4-Methylcyclohexyl)-9H-pyrido[4′,3′:4,5]pyrrolo[2,3-d]pyrimidin-2-yl)amino)-3,4-dihydro-2,6-naphthyridin-2(1H)-yl)ethanol]
IC50 [1]: 2.7 nM
IC50 (CDK4/Cyclin D1): 18.4 nM
IC50 (MOLM13 cells): 10.8 nM

CC1CNCc2ccc(Nc3ncc4c5ccncc5n([C@H]5CC[C@H](C)CC5)c4n3)nc21 (some centres unmarked) [Example 13, N-(8-Methyl-5,6,7,8-tetrahydro-1,6-naphthyridin-2-yl)-9-((1r,4r)-4-methylcyclohexyl)-9H-pyrido[4′,3′:4,5]pyrrolo[2,3-d]pyrimidin-2-amine]
IC50 [1]: 1.8 nM
IC50 (CDK4/Cyclin D1): 31.3 nM
IC50 (MOLM13 cells): 54.5 nM

CC(=O)N1Cc2ccc(Nc3ncc4c5ccncc5n([C@H]5CC[C@H](C)CC5)c4n3)nc2C(C)C1 (some centres unmarked) [Example 14, 1-(8-Methyl-2-((9-((1r,4r)-4-methylcyclohexyl)-9H-pyrido[4′,3′:4,5]pyrrolo[2,3-d]pyrimidin-2-yl)amino)-7,8-dihydro-1,6-naphthyridin-6(5H)-yl)ethanone]
IC50 [1]: 3.2 nM
IC50 (CDK4/Cyclin D1): 4.4 nM
IC50 (MOLM13 cells): 10.6 nM

CC1CN(CCO)Cc2ccc(Nc3ncc4c5ccncc5n([C@H]5CC[C@H](C)CC5)c4n3)nc21 (some centres unmarked) [Example 15, 2-(8-Methyl-2-((9-((1r,4r)-4-methylcyclohexyl)-9H-pyrido[4′,3′:4,5]pyrrolo[2,3-d]pyrimidin-2-yl)amino)-7,8-dihydro-1,6-naphthyridin-6(5H)-yl)ethanol]
IC50 [1]: 3.1 nM
IC50 (CDK4/Cyclin D1): 20.3 nM
IC50 (MOLM13 cells): 29.5 nM

C[C@H]1CC[C@H](n2c3cnccc3c3cnc(Nc4ccc5c(n4)C(O)CNC5)nc32)CC1 (some centres unmarked) [Example 16, 2-((9-((1r,4r)-4-Methylcyclohexyl)-9H-pyrido[4′,3′:4,5]pyrrolo[2,3-d]pyrimidin-2-yl)amino)-5,6,7,8-tetrahydro-1,6-naphthyridin-8-ol]
IC50 [1]: 1.4 nM
IC50 (CDK4/Cyclin D1): 16.5 nM
IC50 (MOLM13 cells): 23.9 nM

COc1cc2c3cnc(Nc4ccc5c(n4)CCNC5)nc3n([C@H]3CC[C@H](C)CC3)c2cn1 [Example 19, 6-Methoxy-9-((1r,4r)-4-methylcyclohexyl)-N-(5,6,7,8-tetrahydro-1,6-naphthyridin-2-yl)-9H-pyrido[4′,3′:4,5]pyrrolo[2,3-d]pyrimidin-2-amine]
IC50 [1]: 33 nM
IC50 (CDK4/Cyclin D1): 1790 nM
IC50 (MOLM13 cells): 204 nM

COc1cc2c3cnc(Nc4ccc5c(n4)CCN(C(=O)CO)C5)nc3n([C@H]3CC[C@H](C)CC3)c2cn1 [Example 20, 2-Hydroxy-1-(2-((6-methoxy-9-((1r,4r)-4-methylcyclohexyl)-9H-pyrido[4′,3′:4,5]-pyrrolo[2,3-d]pyrimidin-2-yl)amino)-7,8-dihydro-1,6-naphthyridin-6(5H)-yl)ethanone]
IC50 [1]: 144 nM
IC50 (CDK4/Cyclin D1): 847 nM
IC50 (MOLM13 cells): 208 nM

O=C(CO)N1CCc2nc(Nc3ncc4c5ccncc5n(C5CCCC5)c4n3)ccc2C1 [Example 22, 1-(2-((9-Cyclopentyl-9H-pyrido[4′,3′:4,5]pyrrolo[2,3-d]pyrimidin-2-yl)amino)-7,8-dihydro-1,6-naphthyridin-6(5H)-yl)-2-hydroxyethanone]
IC50 [1]: 0.65 nM
IC50 (CDK4/Cyclin D1): 36 nM
IC50 (MOLM13 cells): 5.2 nM
